For 27 compounds, activity coefficient results are on record in the NIST ThermoML archive (doi:10.1016/j.jct.2013.02.004).

Numbers after ± are expanded uncertainties.

The series in a line: activity coefficient (dimensionless); of the first substance listed, at infinite dilution; xn = mol fraction of the nth substance listed. The settings on record: 101 kPa, Liquid, Chromatography, x1 = 0.

As to `Cc1ccccc1C` [1,2-dimethylbenzene] + CCCCCC[n+]1ccc2ccccc2c1.N#C[S-], the activity coefficient runs as follows: (328.15 K) 2.35 ± 0.16; (338.15 K) 2.37 ± 0.16; (348.15 K) 2.41 ± 0.16; (358.15 K) 2.43 ± 0.17; (368.15 K) 2.45 ± 0.17.
As for `Cc1cccc(C)c1` [1,3-dimethylbenzene] + CCCCCC[n+]1ccc2ccccc2c1.N#C[S-], the activity coefficient runs as follows: (328.15 K) 2.9 ± 0.2; (338.15 K) 2.93 ± 0.2; (348.15 K) 2.96 ± 0.2; (358.15 K) 2.98 ± 0.2; (368.15 K) 3.01 ± 0.2.
Consider `Cc1ccc(C)cc1` [1,4-dimethylbenzene] + CCCCCC[n+]1ccc2ccccc2c1.N#C[S-], for which the activity coefficient (328.15 K) worked out at 2.82 ± 0.19; the activity coefficient (338.15 K) was 2.85 ± 0.19; the activity coefficient (348.15 K) was 2.88 ± 0.2; the activity coefficient (358.15 K) stood at 2.9 ± 0.2; the activity coefficient (368.15 K) was 2.94 ± 0.2.
On to `C1COCCO1` [1,4-dioxane] + CCCCCC[n+]1ccc2ccccc2c1.N#C[S-], for which the activity coefficient runs as follows: (328.15 K) 1.23 ± 0.08; (338.15 K) 1.25 ± 0.08; (348.15 K) 1.27 ± 0.08; (358.15 K) 1.28 ± 0.08; (368.15 K) 1.31 ± 0.09.
For `C=CCCCCCCCC` [1-decene] + CCCCCC[n+]1ccc2ccccc2c1.N#C[S-], the activity coefficient was 50.6 ± 3.5 (308.15 K); 48.1 ± 3.3 (318.15 K); 46.3 ± 3.2 (328.15 K); 44.2 ± 3 (338.15 K); 42.5 ± 2.9 (348.15 K); 40.5 ± 2.8 (358.15 K). For the same compound, the activity coefficient (368.15 K) was found to be 39.1 ± 2.7.
In the case of `C=CCCCCC` [1-heptene] + CCCCCC[n+]1ccc2ccccc2c1.N#C[S-], the activity coefficient runs as follows: (308.15 K) 23.5 ± 1.6; (318.15 K) 22 ± 1.5; (328.15 K) 20.9 ± 1.4; (338.15 K) 19.5 ± 1.3; (348.15 K) 18.7 ± 1.3; (358.15 K) 17.7 ± 1.2. For the same compound, where the note is “368.15 K”, the activity coefficient amounted to 16.9 ± 1.2.
Turning to `C#CCCCCC` [1-heptyne] + CCCCCC[n+]1ccc2ccccc2c1.N#C[S-], the activity coefficient turned out to be 4.77 ± 0.33 (308.15 K); 4.85 ± 0.33 (318.15 K); 4.93 ± 0.34 (328.15 K); 5.02 ± 0.34 (338.15 K); 5.09 ± 0.35 (348.15 K); 5.16 ± 0.35 (358.15 K). Further, the activity coefficient (368.15 K) is 5.21 ± 0.36.
With `C#CCCCC` [1-hexyne] + CCCCCC[n+]1ccc2ccccc2c1.N#C[S-], the activity coefficient was found to be 3.57 ± 0.24 (308.15 K); 3.64 ± 0.25 (318.15 K); 3.71 ± 0.25 (328.15 K); 3.78 ± 0.26 (338.15 K); 3.83 ± 0.26 (348.15 K); 3.9 ± 0.27 (358.15 K). In addition, the activity coefficient (368.15 K) came out at 3.96 ± 0.27.
In the case of `CCC[N+](=O)[O-]` [1-nitropropane] + CCCCCC[n+]1ccc2ccccc2c1.N#C[S-], the activity coefficient is, setting by setting: (328.15 K) 1.39 ± 0.09; (338.15 K) 1.38 ± 0.09; (348.15 K) 1.37 ± 0.09; (358.15 K) 1.37 ± 0.09; (368.15 K) 1.35 ± 0.09.
For the compound `C#CCCCCCC` [1-octyne] + CCCCCC[n+]1ccc2ccccc2c1.N#C[S-], the activity coefficient was found to be 6.31 ± 0.43 (308.15 K); 6.43 ± 0.44 (318.15 K); 6.52 ± 0.44 (328.15 K); 6.64 ± 0.45 (338.15 K); 6.71 ± 0.46 (348.15 K); 6.8 ± 0.46 (358.15 K). The activity coefficient (368.15 K) worked out at 6.87 ± 0.47.
Regarding `C=CCCC` [1-pentene] + CCCCCC[n+]1ccc2ccccc2c1.N#C[S-], the activity coefficient (308.15 K) came out at 18.4 ± 1.3; the activity coefficient (318.15 K) was found to be 16.2 ± 1.1; the activity coefficient (328.15 K) is 14.5 ± 1; the activity coefficient (338.15 K) was 12.9 ± 0.9; the activity coefficient (348.15 K) was determined as 11.7 ± 0.8; the activity coefficient (358.15 K) stood at 10.7 ± 0.7. Further, the activity coefficient (368.15 K) came to 9.6 ± 0.7.
With `C#CCCC` [1-pentyne] + CCCCCC[n+]1ccc2ccccc2c1.N#C[S-], the activity coefficient (308.15 K) stood at 2.79 ± 0.19; the activity coefficient (318.15 K) amounted to 2.85 ± 0.19; the activity coefficient (328.15 K) turned out to be 2.91 ± 0.2; the activity coefficient (338.15 K) turned out to be 2.97 ± 0.2; the activity coefficient (348.15 K) was determined as 3.03 ± 0.21; the activity coefficient (358.15 K) came to 3.07 ± 0.21. In addition, the activity coefficient (368.15 K) was found to be 3.14 ± 0.21.
`CC(C)CC(C)(C)C` [2,2,4-trimethylpentane] + CCCCCC[n+]1ccc2ccccc2c1.N#C[S-]: the activity coefficient reads like this: (308.15 K) 96.5 ± 6.6; (318.15 K) 79.7 ± 5.5; (328.15 K) 68.6 ± 4.7; (338.15 K) 57.7 ± 4; (348.15 K) 50.8 ± 3.5; (358.15 K) 44.5 ± 3. In addition, the activity coefficient (368.15 K) is 39.1 ± 2.7.
Turning to `CCC(C)(C)C` [2,2-dimethylbutane] + CCCCCC[n+]1ccc2ccccc2c1.N#C[S-], the activity coefficient is, setting by setting: (308.15 K) 91.5 ± 6.3; (318.15 K) 72.2 ± 4.9; (328.15 K) 57.2 ± 3.9; (338.15 K) 45.5 ± 3.1; (348.15 K) 37.9 ± 2.6; (358.15 K) 31.2 ± 2.1. Besides, where the note is “368.15 K”, the activity coefficient stood at 25.6 ± 1.8.
For `CCOC(C)(C)C` [2-ethoxy-2-methylpropane] + CCCCCC[n+]1ccc2ccccc2c1.N#C[S-], the activity coefficient (308.15 K) was 20.6 ± 1.4; the activity coefficient (318.15 K) was determined as 18.6 ± 1.3; the activity coefficient (328.15 K) worked out at 17.2 ± 1.2; the activity coefficient (338.15 K) worked out at 15.7 ± 1.1; the activity coefficient (348.15 K) is 14.7 ± 1; the activity coefficient (358.15 K) came to 13.8 ± 0.9. In addition, the activity coefficient (368.15 K) worked out at 12.8 ± 0.9.
In the case of `CCCCC(C)=O` [2-hexanone] + CCCCCC[n+]1ccc2ccccc2c1.N#C[S-], the activity coefficient reads like this: (328.15 K) 2.62 ± 0.18; (338.15 K) 2.63 ± 0.18; (348.15 K) 2.64 ± 0.18; (358.15 K) 2.65 ± 0.18; (368.15 K) 2.65 ± 0.18.
For the compound `CCC(C)(C)OC` [2-methoxy-2-methylbutane] + CCCCCC[n+]1ccc2ccccc2c1.N#C[S-], the activity coefficient by setting is: (308.15 K) 9.8 ± 0.67; (318.15 K) 9.34 ± 0.64; (328.15 K) 9.01 ± 0.61; (338.15 K) 8.58 ± 0.59; (348.15 K) 8.36 ± 0.57; (358.15 K) 8.13 ± 0.55. The activity coefficient (368.15 K) was 7.85 ± 0.54.
With `COC(C)(C)C` [2-methoxy-2-methylpropane] + CCCCCC[n+]1ccc2ccccc2c1.N#C[S-], the activity coefficient is 8.61 ± 0.59 (308.15 K); 8.13 ± 0.55 (318.15 K); 7.65 ± 0.52 (328.15 K); 7.18 ± 0.49 (338.15 K); 6.99 ± 0.48 (348.15 K); 6.61 ± 0.45 (358.15 K). The activity coefficient (368.15 K) was 6.28 ± 0.43.
For `CCCC(=O)CC` [3-hexanone] + CCCCCC[n+]1ccc2ccccc2c1.N#C[S-], the activity coefficient is, setting by setting: (328.15 K) 2.86 ± 0.19; (338.15 K) 2.88 ± 0.2; (348.15 K) 2.89 ± 0.2; (358.15 K) 2.9 ± 0.2; (368.15 K) 2.91 ± 0.2.
In the case of `CCC(C)CC` [3-methylpentane] + CCCCCC[n+]1ccc2ccccc2c1.N#C[S-], the activity coefficient came out at 52.3 ± 3.6 (308.15 K); 43.4 ± 3 (318.15 K); 37.8 ± 2.6 (328.15 K); 31.9 ± 2.2 (338.15 K); 27.9 ± 1.9 (348.15 K); 24.7 ± 1.7 (358.15 K). Besides, the activity coefficient (368.15 K) is 21.5 ± 1.5.
Take `CC(C)=O` [acetone] + CCCCCC[n+]1ccc2ccccc2c1.N#C[S-]: the activity coefficient reads like this: (328.15 K) 1.33 ± 0.09; (338.15 K) 1.31 ± 0.09; (348.15 K) 1.3 ± 0.08; (358.15 K) 1.3 ± 0.08; (368.15 K) 1.28 ± 0.08.
For `CC#N` [acetonitrile] + CCCCCC[n+]1ccc2ccccc2c1.N#C[S-], the activity coefficient amounted to 1.02 ± 0.06 (328.15 K); 1.01 ± 0.06 (338.15 K); 1 ± 0.06 (348.15 K); 0.994 ± 0.062 (358.15 K); 0.982 ± 0.062 (368.15 K).
For `c1ccccc1` [benzene] + CCCCCC[n+]1ccc2ccccc2c1.N#C[S-], in that order: 1.47 ± 0.1, 1.48 ± 0.1, 1.48 ± 0.1, 1.48 ± 0.1 and 1.49 ± 0.1.
For `CCCCO` [butan-1-ol] + CCCCCC[n+]1ccc2ccccc2c1.N#C[S-], in that order: 0.846 ± 0.054, 0.829 ± 0.053, 0.812 ± 0.053, 0.802 ± 0.052 and 0.788 ± 0.051.
Consider `C1CCCCCC1` [cycloheptane] + CCCCCC[n+]1ccc2ccccc2c1.N#C[S-], for which the activity coefficient amounted to 17 ± 1.2 (308.15 K); 15.8 ± 1.1 (318.15 K); 14.5 ± 1 (328.15 K); 13.4 ± 0.9 (338.15 K); 12.6 ± 0.9 (348.15 K); 11.9 ± 0.8 (358.15 K). Besides, for the setting “368.15 K”, the activity coefficient turned out to be 11.3 ± 0.8.
With `C1CCCCC1` [cyclohexane] + CCCCCC[n+]1ccc2ccccc2c1.N#C[S-], the activity coefficient came out at 15.4 ± 1.1 (308.15 K); 14.2 ± 1 (318.15 K); 13.3 ± 0.9 (328.15 K); 12.4 ± 0.8 (338.15 K); 11.6 ± 0.8 (348.15 K); 10.8 ± 0.7 (358.15 K). Moreover, the activity coefficient (368.15 K) is 10.2 ± 0.7.
For `C1=CCCCC1` [cyclohexene] + CCCCCC[n+]1ccc2ccccc2c1.N#C[S-], the activity coefficient by setting is: (308.15 K) 7.2 ± 0.49; (318.15 K) 6.9 ± 0.47; (328.15 K) 6.6 ± 0.45; (338.15 K) 6.2 ± 0.42; (348.15 K) 5.9 ± 0.4; (358.15 K) 5.7 ± 0.39. Besides, the activity coefficient (368.15 K) turned out to be 5.5 ± 0.37.
